{"source": "paper PMC10141580", "about": "“Cyclic Dichalcogenides Extend the Reach of Bioreductive Prodrugs to Harness Thiol/Disulfide Oxidoreductases: Applications to seco-Duocarmycins Targeting the Thioredoxin System” (ACS Central Science, 2023)", "system": "NCI-60 standardized human tumor cell line panel", "experiment": "cells", "format": "cell-based", "settings": "for NCI-60 screening: Log(GI50): log10 of GI50 in M; for NCI-60 screening: Log(RedIndex): log10 reductive index vs P-CC60", "note": "Read-outs that look alike come from different tables or passages of the source."}
{"compound": "COc1cc2cc(C(=O)N3C[C@@H](CCl)c4c3cc(OC(=O)N(CCC(=O)N3CCN(C)CC3)[C@H]3CCSSC3)c3ccccc43)[nH]c2c(OC)c1OC", "note": "[P-SS60-CBI-TMI]", "values": [{"measurement": "NCI-60 screening: Log(GI50)", "setting": "786-0 (RE) cell line", "result": -6.79}, {"measurement": "NCI-60 screening: Log(RedIndex)", "setting": "786-0 (RE) cell line", "result": 1.02}, {"measurement": "GI50", "setting": "786-0 (RE) cell line, read-out: NCI-60 screening: Raw GI50", "result": 160, "unit": "nM"}, {"measurement": "GI50", "setting": "786-0, read-out: GI50", "result": 160, "unit": "nM"}, {"measurement": "NCI-60 screening: Log(GI50)", "setting": "A498 (RE) cell line", "result": -6.6}, {"measurement": "NCI-60 screening: Log(RedIndex)", "setting": "A498 (RE) cell line", "result": 1.04}, {"measurement": "GI50", "setting": "A498 (RE) cell line, read-out: NCI-60 screening: Raw GI50", "result": 250, "unit": "nM"}, {"measurement": "GI50", "setting": "A498, read-out: GI50", "result": 250, "unit": "nM"}, {"measurement": "GI50", "setting": "A549/ATCC, read-out: GI50", "result": 150, "unit": "nM"}, {"measurement": "NCI-60 screening: Log(GI50)", "setting": "ACHN (RE) cell line", "result": -7.25}, {"measurement": "NCI-60 screening: Log(RedIndex)", "setting": "ACHN (RE) cell line", "result": 0.94}, {"measurement": "GI50", "setting": "ACHN (RE) cell line, read-out: NCI-60 screening: Raw GI50", "result": 56, "unit": "nM"}, {"measurement": "GI50", "setting": "ACHN, read-out: GI50", "result": 56, "unit": "nM"}, {"measurement": "GI50", "setting": "BT-549, read-out: GI50", "result": 230, "unit": "nM"}, {"measurement": "NCI-60 screening: Log(GI50)", "setting": "CAKI-1 (RE) cell line", "result": -6.57}, {"measurement": "NCI-60 screening: Log(RedIndex)", "setting": "CAKI-1 (RE) cell line", "result": 0.74}, {"measurement": "GI50", "setting": "CAKI-1 (RE) cell line, read-out: NCI-60 screening: Raw GI50", "result": 270, "unit": "nM"}, {"measurement": "GI50", "setting": "CAKI-1, read-out: GI50", "result": 270, "unit": "nM"}, {"measurement": "GI50", "setting": "CCRF-CEM, read-out: GI50", "result": 220, "unit": "nM"}, {"measurement": "GI50", "setting": "COLO 205, read-out: GI50", "result": 340, "unit": "nM"}, {"measurement": "NCI-60 screening: Log(GI50)", "setting": "DU-145 (PR) cell line", "result": -7.23}, {"measurement": "NCI-60 screening: Log(RedIndex)", "setting": "DU-145 (PR) cell line", "result": 0.89}, {"measurement": "GI50", "setting": "DU-145, read-out: GI50", "result": 59, "unit": "nM"}, {"measurement": "GI50", "setting": "EKVX, read-out: GI50", "result": 320, "unit": "nM"}, {"measurement": "GI50", "setting": "HCC-2998, read-out: GI50", "result": 160, "unit": "nM"}, {"measurement": "GI50", "setting": "HCT-15, read-out: GI50", "result": 260, "unit": "nM"}, {"measurement": "GI50", "setting": "HCT-116, read-out: GI50", "result": 160, "unit": "nM"}, {"measurement": "GI50", "setting": "HL-60(TB), read-out: GI50", "result": 120, "unit": "nM"}, {"measurement": "GI50", "setting": "HOP-62, read-out: GI50", "result": 110, "unit": "nM"}, {"measurement": "GI50", "setting": "HOP-92, read-out: GI50", "result": 350, "unit": "nM"}, {"measurement": "GI50", "setting": "HT29, read-out: GI50", "result": 270, "unit": "nM"}, {"measurement": "NCI-60 screening: Log(GI50)", "setting": "IGROV1 (OV) cell line", "result": -6.3}, {"measurement": "NCI-60 screening: Log(RedIndex)", "setting": "IGROV1 (OV) cell line", "result": 0.66}, {"measurement": "GI50", "setting": "IGROV1, read-out: GI50", "result": 500, "unit": "nM"}, {"measurement": "GI50", "setting": "K-562, read-out: GI50", "result": 160, "unit": "nM"}, {"measurement": "GI50", "setting": "KM12, read-out: GI50", "result": 270, "unit": "nM"}, {"measurement": "GI50", "setting": "LOX IMVI, read-out: GI50", "result": 210, "unit": "nM"}, {"measurement": "GI50", "setting": "M14, read-out: GI50", "result": 190, "unit": "nM"}, {"measurement": "GI50", "setting": "MALME-3M, read-out: GI50", "result": 280, "unit": "nM"}, {"measurement": "GI50", "setting": "MCF7, read-out: GI50", "result": 35, "unit": "nM"}, {"measurement": "GI50", "setting": "MDA-MB-435, read-out: GI50", "result": 210, "unit": "nM"}, {"measurement": "GI50", "setting": "MDA-MB-468, read-out: GI50", "result": 170, "unit": "nM"}, {"measurement": "GI50", "setting": "MOLT-4, read-out: GI50", "result": 90, "unit": "nM"}, {"measurement": "GI50/IC50, mean", "setting": "NCI-60 vs ProliFiler, 19 overlapping cell lines", "result": 4.0}, {"measurement": "GI50", "setting": "NCI-H23, read-out: GI50", "result": 55, "unit": "nM"}, {"measurement": "GI50", "setting": "NCI-H226, read-out: GI50", "result": 430, "unit": "nM"}, {"measurement": "NCI-60 screening: Log(GI50)", "setting": "NCI-H460 (LC) cell line", "result": -7.25}, {"measurement": "NCI-60 screening: Log(RedIndex)", "setting": "NCI-H460 (LC) cell line", "result": 0.96}, {"measurement": "GI50", "setting": "NCI-H460 (LC) cell line, read-out: NCI-60 screening: Raw GI50", "result": 56, "unit": "nM"}, {"measurement": "GI50", "setting": "NCI-H460, read-out: GI50", "result": 56, "unit": "nM"}, {"measurement": "NCI-60 screening: Log(GI50)", "setting": "NCI-H522 (LC) cell line", "result": -6.58}, {"measurement": "NCI-60 screening: Log(RedIndex)", "setting": "NCI-H522 (LC) cell line", "result": 0.81}, {"measurement": "GI50", "setting": "NCI-H522 (LC) cell line, read-out: NCI-60 screening: Raw GI50", "result": 260, "unit": "nM"}, {"measurement": "GI50", "setting": "NCI-H522, read-out: GI50", "result": 260, "unit": "nM"}, {"measurement": "NCI-60 screening: Log(GI50)", "setting": "OVCAR-3 (OV) cell line", "result": -6.63}, {"measurement": "NCI-60 screening: Log(RedIndex)", "setting": "OVCAR-3 (OV) cell line", "result": 0.95}, {"measurement": "GI50", "setting": "OVCAR-3, read-out: GI50", "result": 240, "unit": "nM"}, {"measurement": "NCI-60 screening: Log(GI50)", "setting": "OVCAR-4 (OV) cell line", "result": -6.33}, {"measurement": "NCI-60 screening: Log(RedIndex)", "setting": "OVCAR-4 (OV) cell line", "result": 0.7}, {"measurement": "GI50", "setting": "OVCAR-4, read-out: GI50", "result": 460, "unit": "nM"}, {"measurement": "NCI-60 screening: Log(GI50)", "setting": "OVCAR-5 (OV) cell line", "result": -6.51}, {"measurement": "NCI-60 screening: Log(RedIndex)", "setting": "OVCAR-5 (OV) cell line", "result": 1.22}, {"measurement": "GI50", "setting": "OVCAR-5, read-out: GI50", "result": 310, "unit": "nM"}, {"measurement": "NCI-60 screening: Log(GI50)", "setting": "OVCAR-8 (OV) cell line", "result": -6.73}, {"measurement": "NCI-60 screening: Log(RedIndex)", "setting": "OVCAR-8 (OV) cell line", "result": 0.95}, {"measurement": "GI50", "setting": "OVCAR-8 (OV) cell line, read-out: NCI-60 screening: Raw GI50", "result": 190, "unit": "nM"}, {"measurement": "GI50", "setting": "OVCAR-8, read-out: GI50", "result": 190, "unit": "nM"}, {"measurement": "NCI-60 screening: Log(GI50)", "setting": "PC-3 (PR) cell line", "result": -6.14}, {"measurement": "NCI-60 screening: Log(RedIndex)", "setting": "PC-3 (PR) cell line", "result": 0.64}, {"measurement": "GI50", "setting": "PC-3, read-out: GI50", "result": 720, "unit": "nM"}, {"measurement": "GI50", "setting": "RPMI-8226, read-out: GI50", "result": 220, "unit": "nM"}, {"measurement": "NCI-60 screening: Log(GI50)", "setting": "RXF 393 (RE) cell line", "result": -6.83}, {"measurement": "NCI-60 screening: Log(RedIndex)", "setting": "RXF 393 (RE) cell line", "result": 0.85}, {"measurement": "GI50", "setting": "RXF 393 (RE) cell line, read-out: NCI-60 screening: Raw GI50", "result": 150, "unit": "nM"}, {"measurement": "GI50", "setting": "RXF 393, read-out: GI50", "result": 150, "unit": "nM"}, {"measurement": "GI50", "setting": "SF-268, read-out: GI50", "result": 190, "unit": "nM"}, {"measurement": "GI50", "setting": "SF-295, read-out: GI50", "result": 140, "unit": "nM"}, {"measurement": "GI50", "setting": "SF-539, read-out: GI50", "result": 170, "unit": "nM"}, {"measurement": "GI50", "setting": "SK-MEL-5, read-out: GI50", "result": 170, "unit": "nM"}, {"measurement": "GI50", "setting": "SK-MEL-28, read-out: GI50", "result": 290, "unit": "nM"}, {"measurement": "NCI-60 screening: Log(GI50)", "setting": "SK-OV-3 (OV) cell line", "result": -6.58}, {"measurement": "NCI-60 screening: Log(RedIndex)", "setting": "SK-OV-3 (OV) cell line", "result": 0.91}, {"measurement": "GI50", "setting": "SK-OV-3 (OV) cell line, read-out: NCI-60 screening: Raw GI50", "result": 260, "unit": "nM"}, {"measurement": "GI50", "setting": "SK-OV-3, read-out: GI50", "result": 260, "unit": "nM"}, {"measurement": "NCI-60 screening: Log(GI50)", "setting": "SN12C (RE) cell line", "result": -6.54}, {"measurement": "NCI-60 screening: Log(RedIndex)", "setting": "SN12C (RE) cell line", "result": 0.62}, {"measurement": "GI50", "setting": "SN12C (RE) cell line, read-out: NCI-60 screening: Raw GI50", "result": 290, "unit": "nM"}, {"measurement": "GI50", "setting": "SN12C, read-out: GI50", "result": 290, "unit": "nM"}, {"measurement": "GI50", "setting": "SNB-19, read-out: GI50", "result": 250, "unit": "nM"}, {"measurement": "GI50", "setting": "SR, read-out: GI50", "result": 34, "unit": "nM"}, {"measurement": "GI50", "setting": "SW-620, read-out: GI50", "result": 220, "unit": "nM"}, {"measurement": "GI50", "setting": "T-47D, read-out: GI50", "result": 700, "unit": "nM"}, {"measurement": "NCI-60 screening: Log(GI50)", "setting": "TK-10 (RE) cell line", "result": -5.47}, {"measurement": "NCI-60 screening: Log(RedIndex)", "setting": "TK-10 (RE) cell line", "result": -0.07}, {"measurement": "GI50", "setting": "TK-10, read-out: GI50", "result": 3400, "unit": "nM"}, {"measurement": "GI50", "setting": "U251, read-out: GI50", "result": 160, "unit": "nM"}]}
